# Experimental data reported in ChEMBL document CHEMBL4507260 (2021).
# The source made the active and inactive calls. The calls are words filed in the database; no cut-off is given here.
# How the values were obtained:
# [1] = test system: Tyrosine-protein kinase ABL1 (Homo sapiens), P00519 [F317I]; conditions: Compound concentration 1000.0 nM
# [2] = molecular target: Aurora kinase B (Homo sapiens) (UniProt Q96GD4); conditions: Compound concentration 1000.0 nM
# [3] = molecular target: Citron Rho-interacting kinase (Homo sapiens) (UniProt O14578); conditions: Compound concentration 1000.0 nM
# [4] = molecular target: Mitogen-activated protein kinase 15 (Homo sapiens) (UniProt Q8TD08); conditions: Compound concentration 1000.0 nM
# Chain of Mitogen-activated protein kinase 15 (Homo sapiens) (Q8TD08 whole entry): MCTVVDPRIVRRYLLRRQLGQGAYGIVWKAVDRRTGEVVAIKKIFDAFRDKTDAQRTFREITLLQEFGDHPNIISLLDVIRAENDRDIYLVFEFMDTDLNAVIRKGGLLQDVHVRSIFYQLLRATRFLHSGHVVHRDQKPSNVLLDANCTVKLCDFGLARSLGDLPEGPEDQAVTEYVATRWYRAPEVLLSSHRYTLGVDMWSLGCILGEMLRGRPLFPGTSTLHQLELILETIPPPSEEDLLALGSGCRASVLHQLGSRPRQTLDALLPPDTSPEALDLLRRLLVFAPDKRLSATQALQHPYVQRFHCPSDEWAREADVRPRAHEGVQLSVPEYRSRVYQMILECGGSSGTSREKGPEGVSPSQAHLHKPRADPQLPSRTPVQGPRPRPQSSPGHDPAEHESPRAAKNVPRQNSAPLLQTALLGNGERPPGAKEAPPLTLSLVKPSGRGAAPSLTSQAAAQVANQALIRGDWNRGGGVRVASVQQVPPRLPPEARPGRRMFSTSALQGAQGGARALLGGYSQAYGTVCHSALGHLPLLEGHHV
# [5] = molecular target: Glycogen synthase kinase-3 beta (Homo sapiens) (UniProt P49841); conditions: Compound concentration 1000.0 nM
# [6] = molecular target: Serine/threonine-protein kinase MRCK beta (Homo sapiens) (UniProt Q9Y5S2); conditions: Compound concentration 1000.0 nM
# [7] = molecular target: Muscle, skeletal receptor tyrosine-protein kinase (Homo sapiens) (UniProt O15146); conditions: Compound concentration 1000.0 nM
# Chain of Muscle, skeletal receptor tyrosine-protein kinase (Homo sapiens) (O15146 whole entry): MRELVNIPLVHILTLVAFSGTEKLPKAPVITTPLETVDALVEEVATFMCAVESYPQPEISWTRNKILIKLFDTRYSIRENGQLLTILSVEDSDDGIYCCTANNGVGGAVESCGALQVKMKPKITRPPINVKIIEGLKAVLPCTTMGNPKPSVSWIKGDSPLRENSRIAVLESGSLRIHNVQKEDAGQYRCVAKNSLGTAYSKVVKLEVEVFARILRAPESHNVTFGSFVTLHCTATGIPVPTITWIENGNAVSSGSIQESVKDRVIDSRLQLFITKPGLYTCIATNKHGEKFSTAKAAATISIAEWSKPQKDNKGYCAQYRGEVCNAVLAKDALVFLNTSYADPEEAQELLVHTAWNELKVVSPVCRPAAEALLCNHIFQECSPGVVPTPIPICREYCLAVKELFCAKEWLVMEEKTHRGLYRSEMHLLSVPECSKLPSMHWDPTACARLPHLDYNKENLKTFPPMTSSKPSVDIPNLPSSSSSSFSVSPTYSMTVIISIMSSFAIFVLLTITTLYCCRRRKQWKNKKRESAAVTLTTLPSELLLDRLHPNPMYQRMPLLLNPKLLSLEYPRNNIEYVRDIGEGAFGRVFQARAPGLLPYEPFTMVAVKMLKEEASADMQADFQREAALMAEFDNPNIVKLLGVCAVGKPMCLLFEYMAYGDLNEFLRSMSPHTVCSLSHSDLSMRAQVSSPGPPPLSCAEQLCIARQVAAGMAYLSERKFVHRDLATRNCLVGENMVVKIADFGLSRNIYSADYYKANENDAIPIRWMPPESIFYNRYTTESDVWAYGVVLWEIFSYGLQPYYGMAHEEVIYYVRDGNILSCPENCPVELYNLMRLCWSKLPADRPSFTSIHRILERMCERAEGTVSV
# [8] = molecular target: Protein kinase C epsilon type (Homo sapiens) (UniProt Q02156); conditions: Compound concentration 1000.0 nM
# Chain of Protein kinase C epsilon type (Homo sapiens) (Q02156 whole entry): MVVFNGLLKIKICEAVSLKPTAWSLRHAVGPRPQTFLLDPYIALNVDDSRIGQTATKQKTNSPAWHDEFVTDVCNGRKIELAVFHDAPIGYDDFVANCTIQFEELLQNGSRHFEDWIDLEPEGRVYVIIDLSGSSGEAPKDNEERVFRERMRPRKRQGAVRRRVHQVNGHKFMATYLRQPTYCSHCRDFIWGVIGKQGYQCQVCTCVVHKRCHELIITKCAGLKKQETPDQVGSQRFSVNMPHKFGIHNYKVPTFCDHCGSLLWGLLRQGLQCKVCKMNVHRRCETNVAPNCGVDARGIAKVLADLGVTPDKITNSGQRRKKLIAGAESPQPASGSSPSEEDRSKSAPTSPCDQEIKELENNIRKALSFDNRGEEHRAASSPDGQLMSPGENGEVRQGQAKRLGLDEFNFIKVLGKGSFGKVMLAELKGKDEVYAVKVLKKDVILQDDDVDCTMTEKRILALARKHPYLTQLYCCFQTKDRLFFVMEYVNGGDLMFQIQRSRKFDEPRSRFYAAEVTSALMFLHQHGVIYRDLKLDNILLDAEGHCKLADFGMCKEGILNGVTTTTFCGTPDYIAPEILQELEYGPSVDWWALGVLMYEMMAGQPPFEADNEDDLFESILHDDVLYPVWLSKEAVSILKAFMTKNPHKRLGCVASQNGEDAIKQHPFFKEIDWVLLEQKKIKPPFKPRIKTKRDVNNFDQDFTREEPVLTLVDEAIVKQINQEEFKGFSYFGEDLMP
# [9] = molecular target: cAMP-dependent protein kinase catalytic subunit PRKX (Homo sapiens) (UniProt P51817); conditions: Compound concentration 1000.0 nM
# Chain of cAMP-dependent protein kinase catalytic subunit PRKX (Homo sapiens) (P51817 whole entry): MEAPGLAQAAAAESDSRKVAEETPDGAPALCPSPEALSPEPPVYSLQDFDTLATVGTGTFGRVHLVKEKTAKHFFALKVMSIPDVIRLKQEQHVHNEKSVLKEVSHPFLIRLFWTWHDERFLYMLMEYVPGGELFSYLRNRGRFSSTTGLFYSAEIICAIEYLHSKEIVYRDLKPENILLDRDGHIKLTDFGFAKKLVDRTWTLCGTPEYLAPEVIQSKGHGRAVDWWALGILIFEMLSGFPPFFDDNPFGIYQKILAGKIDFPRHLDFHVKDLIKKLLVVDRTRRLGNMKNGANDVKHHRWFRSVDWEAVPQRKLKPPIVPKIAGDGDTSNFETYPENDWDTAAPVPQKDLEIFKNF
# [10] = test system: Proto-oncogene tyrosine-protein kinase receptor Ret (Homo sapiens), P07949 [M918T]; conditions: Compound concentration 1000.0 nM
# Chain of Proto-oncogene tyrosine-protein kinase receptor Ret (Homo sapiens), P07949 [M918T] (P07949 whole entry M918T): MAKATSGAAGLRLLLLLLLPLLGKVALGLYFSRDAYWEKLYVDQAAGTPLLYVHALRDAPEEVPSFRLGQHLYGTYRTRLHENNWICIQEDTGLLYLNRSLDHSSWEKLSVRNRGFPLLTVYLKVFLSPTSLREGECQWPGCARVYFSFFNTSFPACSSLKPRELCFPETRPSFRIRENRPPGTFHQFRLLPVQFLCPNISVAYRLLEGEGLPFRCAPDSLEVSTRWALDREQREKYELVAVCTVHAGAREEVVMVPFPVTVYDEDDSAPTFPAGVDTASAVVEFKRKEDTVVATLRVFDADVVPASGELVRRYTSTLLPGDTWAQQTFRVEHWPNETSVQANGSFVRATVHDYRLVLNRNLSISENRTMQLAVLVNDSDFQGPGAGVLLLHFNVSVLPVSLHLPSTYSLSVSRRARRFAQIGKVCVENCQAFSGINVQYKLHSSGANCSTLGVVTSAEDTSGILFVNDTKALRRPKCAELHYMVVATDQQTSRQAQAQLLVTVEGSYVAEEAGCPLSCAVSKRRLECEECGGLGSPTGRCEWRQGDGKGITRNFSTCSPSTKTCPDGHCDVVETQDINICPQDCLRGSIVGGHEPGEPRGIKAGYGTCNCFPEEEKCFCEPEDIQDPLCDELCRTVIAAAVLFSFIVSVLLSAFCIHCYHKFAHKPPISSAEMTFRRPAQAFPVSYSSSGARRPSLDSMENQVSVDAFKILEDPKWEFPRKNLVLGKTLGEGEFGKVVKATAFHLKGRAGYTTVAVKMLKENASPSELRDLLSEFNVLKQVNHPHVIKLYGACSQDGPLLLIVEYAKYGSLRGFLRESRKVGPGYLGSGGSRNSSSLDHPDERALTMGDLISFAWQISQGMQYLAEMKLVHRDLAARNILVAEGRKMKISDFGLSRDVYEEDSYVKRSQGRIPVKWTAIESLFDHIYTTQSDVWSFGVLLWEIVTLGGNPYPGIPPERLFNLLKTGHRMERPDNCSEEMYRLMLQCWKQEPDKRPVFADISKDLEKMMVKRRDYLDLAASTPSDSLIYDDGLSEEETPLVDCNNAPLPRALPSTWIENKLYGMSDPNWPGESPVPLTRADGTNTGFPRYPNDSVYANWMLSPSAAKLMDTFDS
# [11] = molecular target: Rho-associated protein kinase 1 (Homo sapiens) (UniProt Q13464); conditions: Compound concentration 1000.0 nM
# [12] = molecular target: Dual specificity testis-specific protein kinase 1 (Homo sapiens) (UniProt Q15569); conditions: Compound concentration 1000.0 nM
# D(4) dopamine receptor = D(4) dopamine receptor (Homo sapiens, UniProt P21917); assay: Radioligand assay (DRD4.7)
# [13] = molecular target: Adenosine receptor A2a (Homo sapiens) (UniProt P29274); assay: A2A CEREP ligand profiling; conditions: Compound concentration 10.0 uM
# [14] = molecular target: Adenosine receptor A3 (Homo sapiens) (UniProt P0DMS8); assay: A3 CEREP ligand profiling; conditions: Compound concentration 10.0 uM
# [15] = molecular target: Substance-K receptor (Homo sapiens) (UniProt P21452); assay: NK2 CEREP ligand profiling; conditions: Compound concentration 10.0 uM
# [16] = molecular target: Neuromedin-K receptor (Homo sapiens) (UniProt P29371); assay: NK3 CEREP ligand profiling; conditions: Compound concentration 10.0 uM
# [17] = molecular target: Kappa-type opioid receptor (Homo sapiens) (UniProt P41145); assay: kappa CEREP ligand profiling; conditions: Compound concentration 10.0 uM
# [18] = molecular target: 5-hydroxytryptamine receptor 1A (Homo sapiens) (UniProt P08908); assay: 5-HT1A CEREP ligand profiling; conditions: Compound concentration 10.0 uM
# [19] = molecular target: Adenosine receptor A1 (Homo sapiens) (UniProt P30542); conditions: Compound concentration 10.0 uM
# Description: A1 CEREP ligand profiling
# [20] = molecular target: Type-1 angiotensin II receptor (Homo sapiens) (UniProt P30556); conditions: Compound concentration 10.0 uM
# Description: AT1 CEREP ligand profiling
# [21] = molecular target: Natriuretic peptides A (Homo sapiens) (UniProt P01160); conditions: Compound concentration 10.0 uM
# Chain of Natriuretic peptides A (Homo sapiens) (P01160 whole entry): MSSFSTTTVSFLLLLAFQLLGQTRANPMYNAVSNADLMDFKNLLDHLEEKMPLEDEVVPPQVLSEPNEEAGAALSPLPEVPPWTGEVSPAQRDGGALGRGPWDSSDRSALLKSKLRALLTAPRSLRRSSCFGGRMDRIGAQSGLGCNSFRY
# Description: ANP CEREP ligand profiling
# [22] = molecular target: Bombesin receptor (Homo sapiens) (UniProt P28336+P32247+P30550); conditions: Compound concentration 10.0 uM
# Description: Bombesin CEREP ligand profiling
# [23] = molecular target: Calcitonin-gene-related peptide receptor, CALCRL/RAMP1 (Homo sapiens) (UniProt O60894+Q16602); conditions: Compound concentration 10.0 uM
# Description: CGRP CEREP ligand profiling
# [24] = molecular target: Cannabinoid receptor 1 (Homo sapiens) (UniProt P21554); conditions: Compound concentration 10.0 uM
# Description: CB1 CEREP ligand profiling
# [25] = molecular target: Cannabinoid receptor 2 (Homo sapiens) (UniProt P34972); conditions: Compound concentration 10.0 uM
# Description: CB2 CEREP ligand profiling
# [26] = molecular target: Cholecystokinin receptor type A (Homo sapiens) (UniProt P32238); conditions: Compound concentration 10.0 uM
# Description: CCKA (CCK1) CEREP ligand profiling
# [27] = molecular target: D(3) dopamine receptor (Homo sapiens) (UniProt P35462); conditions: Compound concentration 10.0 uM
# Description: D3 CEREP ligand profiling
# [28] = molecular target: D(4) dopamine receptor (Homo sapiens) (UniProt P21917); conditions: Compound concentration 10.0 uM
# Description: D4 CEREP ligand profiling
# [29] = molecular target: Endothelin receptor type B (Homo sapiens) (UniProt P24530); conditions: Compound concentration 10.0 uM
# Description: ETB CEREP ligand profiling
# [30] = molecular target: C-C chemokine receptor type 1 (Homo sapiens) (UniProt P32246); conditions: Compound concentration 10.0 uM
# Description: CCR1 CEREP ligand profiling
# [31] = molecular target: Muscarinic acetylcholine receptor M2 (Homo sapiens) (UniProt P08172); conditions: Compound concentration 10.0 uM
# Description: M2 CEREP ligand profiling
# [32] = molecular target: Muscarinic acetylcholine receptor M4 (Homo sapiens) (UniProt P08173); conditions: Compound concentration 10.0 uM
# Description: M4 CEREP ligand profiling
# [33] = molecular target: Muscarinic acetylcholine receptor M5 (Homo sapiens) (UniProt P08912); conditions: Compound concentration 10.0 uM
# Description: M5 CEREP ligand profiling
# [34] = molecular target: Substance-P receptor (Homo sapiens) (UniProt P25103); conditions: Compound concentration 10.0 uM
# Description: NK1 CEREP ligand profiling
# [35] = molecular target: Neuropeptide Y receptor type 1 (Homo sapiens) (UniProt P25929); conditions: Compound concentration 10.0 uM
# Description: Y1 CEREP ligand profiling
# [36] = molecular target: Neurotensin receptor type 1 (Homo sapiens) (UniProt P30989); conditions: Compound concentration 10.0 uM
# Description: NT1 (NTS1) CEREP ligand profiling
# [37] = molecular target: Pituitary adenylate cyclase-activating polypeptide type I receptor (Homo sapiens) (UniProt P41586); conditions: Compound concentration 10.0 uM
# Description: PACAP CEREP ligand profiling
# [38] = molecular target: Thromboxane A2 receptor (Homo sapiens) (UniProt P21731); conditions: Compound concentration 10.0 uM
# Description: TXA2/PGH2 CEREP ligand profiling
# [39] = molecular target: P2X receptor (Rattus norvegicus) (UniProt P51579+P49653+P51578+Q64663+P47824+P51577+P49654); conditions: Compound concentration 10.0 uM
# Description: P2X CEREP ligand profiling
# [40] = molecular target: 5-hydroxytryptamine receptor 1B (Homo sapiens) (UniProt P28222); conditions: Compound concentration 10.0 uM
# Description: 5-HT1B CEREP ligand profiling
# [41] = molecular target: 5-hydroxytryptamine receptor 6 (Homo sapiens) (UniProt P50406); conditions: Compound concentration 10.0 uM
# Description: 5-HT6 CEREP ligand profiling
# [42] = molecular target: Somatostatin receptor (Homo sapiens) (UniProt P35346+P30874+P31391+P30872+P32745); conditions: Compound concentration 10.0 uM
# Description: Somatostatin CEREP ligand profiling
# [43] = molecular target: Vasoactive intestinal polypeptide receptor 1 (Homo sapiens) (UniProt P32241); conditions: Compound concentration 10.0 uM
# Description: VIP1 (VPAC1) CEREP ligand profiling
# [44] = molecular target: Calcium-activated potassium channel (Homo sapiens) (UniProt Q92952+Q9UGI6+Q12791+O15554+Q9H2S1+A8MYU2); conditions: Compound concentration 10.0 uM
# Description: SK+Ca channel CEREP ligand profiling
# Chain of Tyrosine-protein kinase ABL1 (Homo sapiens), P00519 [F317I] (P00519 whole entry F317I): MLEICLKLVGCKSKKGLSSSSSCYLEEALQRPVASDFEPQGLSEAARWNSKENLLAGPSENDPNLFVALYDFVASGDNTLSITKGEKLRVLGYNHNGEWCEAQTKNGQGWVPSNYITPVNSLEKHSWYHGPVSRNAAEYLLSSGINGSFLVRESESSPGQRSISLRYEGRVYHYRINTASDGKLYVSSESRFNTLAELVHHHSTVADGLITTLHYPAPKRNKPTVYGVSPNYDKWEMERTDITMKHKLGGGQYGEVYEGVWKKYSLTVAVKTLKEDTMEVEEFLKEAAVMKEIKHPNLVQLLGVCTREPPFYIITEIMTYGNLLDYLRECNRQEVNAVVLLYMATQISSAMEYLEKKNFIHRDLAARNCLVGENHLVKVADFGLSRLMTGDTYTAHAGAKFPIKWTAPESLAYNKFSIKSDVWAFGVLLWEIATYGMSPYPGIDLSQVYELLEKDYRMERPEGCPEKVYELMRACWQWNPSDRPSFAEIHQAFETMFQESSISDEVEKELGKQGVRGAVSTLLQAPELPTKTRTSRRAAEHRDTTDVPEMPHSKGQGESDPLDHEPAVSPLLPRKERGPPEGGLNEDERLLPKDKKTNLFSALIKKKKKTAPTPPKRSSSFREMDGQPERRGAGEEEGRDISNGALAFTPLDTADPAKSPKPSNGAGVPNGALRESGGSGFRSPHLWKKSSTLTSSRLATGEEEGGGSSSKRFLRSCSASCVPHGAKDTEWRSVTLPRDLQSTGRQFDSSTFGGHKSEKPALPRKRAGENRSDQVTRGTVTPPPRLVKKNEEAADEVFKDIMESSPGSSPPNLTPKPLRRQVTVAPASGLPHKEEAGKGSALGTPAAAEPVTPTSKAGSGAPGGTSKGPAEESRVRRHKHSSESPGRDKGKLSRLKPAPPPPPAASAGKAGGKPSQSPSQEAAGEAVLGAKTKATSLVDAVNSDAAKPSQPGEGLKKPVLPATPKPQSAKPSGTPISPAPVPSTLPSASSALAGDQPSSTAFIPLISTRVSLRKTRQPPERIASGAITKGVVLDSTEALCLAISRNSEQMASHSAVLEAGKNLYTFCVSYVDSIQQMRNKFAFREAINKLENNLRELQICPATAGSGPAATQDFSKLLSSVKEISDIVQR
smiles,measurement,setting,value
CSc1cccnc1N1CCN(Cc2nc3ccccc3[nH]2)CC1 [A-769],residual activity,[1],74%
same,residual activity,[2],67%
same,residual activity,[3],100%
same,residual activity,[4],82%
same,residual activity,[5],78%
same,residual activity,[6],100%
same,residual activity,[7],100%
same,residual activity,[8],77%
same,residual activity,[9],100%
same,residual activity,[10],99%
same,residual activity,[11],93%
same,residual activity,[12],100%
c1ccc(N2CCN(Cc3nc4ccccc4[nH]3)CC2)nc1 [ABT-724],Ki,D(4) dopamine receptor,0.0468 µM (active)
same,inhibition,[13],28%
same,inhibition,[14],11%
same,inhibition,[15],15%
same,inhibition,[16],26%
same,inhibition,[17],68%
same,inhibition,[18],73%
same,residual activity,[1],100%
same,residual activity,[2],18%
same,residual activity,[3],88%
same,residual activity,[4],100%
same,residual activity,[5],93%
same,residual activity,[6],100%
same,residual activity,[7],100%
same,residual activity,[8],100%
same,residual activity,[9],100%
same,residual activity,[10],100%
same,residual activity,[11],100%
same,residual activity,[12],97%
same,inhibition,[19],< 10%
same,inhibition,[20],< 10%
same,inhibition,[21],< 10%
same,inhibition,[22],< 10%
same,inhibition,[23],< 10%
same,inhibition,[24],< 10%
same,inhibition,[25],< 10%
same,inhibition,[26],< 10%
same,inhibition,[27],< 10%
same,inhibition,[28],99%
same,inhibition,[29],< 10%
same,inhibition,[30],< 10%
same,inhibition,[31],< 10%
same,inhibition,[32],< 10%
same,inhibition,[33],< 10%
same,inhibition,[34],< 10%
same,inhibition,[35],< 10%
same,inhibition,[36],< 10%
same,inhibition,[37],< 10%
same,inhibition,[38],< 10%
same,inhibition,[39],< 10%
same,inhibition,[40],< 10%
same,inhibition,[41],< 10%
same,inhibition,[42],< 10%
same,inhibition,[43],< 10%
same,inhibition,[44],< 10%
